Measurements published in patent publication US20160060260A1, “BROMODOMAIN INHIBITORS FOR TREATING DISEASE” (Board of Regents, The University of Texas System, priority 2014, published 2016).
pIC50, pKd: −log10 of the molar value.

Experiments:
[1] = biological target: T1, Recombinant human His-tagged Trim24-PHD-bromodomain (Homo sapiens, UniProt O15164); assay: Trim24 AlphaScreen Assay; format: binding; conditions: 5 nM Trim24 protein, 15 nM biotinylated H3K23ac (1-33aa) peptide
T1 construct: Recombinant human His-tagged Trim24-PHD-bromodomain (produced in-house); made in house
T1 sequence (O15164 824-1006 limits assumed): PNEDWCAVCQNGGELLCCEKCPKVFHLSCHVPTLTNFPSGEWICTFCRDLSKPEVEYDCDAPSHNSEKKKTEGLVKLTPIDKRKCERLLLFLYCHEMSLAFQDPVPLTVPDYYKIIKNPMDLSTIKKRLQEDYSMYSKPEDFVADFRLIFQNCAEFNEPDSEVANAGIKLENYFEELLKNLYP
Outline: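 His-tagged Trim24-PHD-bromodomain, biotinylated H3K23ac (1-33aa) peptide and compound incubated 1 h at room temperature in 50 mM Hepes pH 7.5, 100 mM NaCl, 0.12 mM Triton X-100.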

[2] = biological target: T2, TRIM24 (Homo sapiens, UniProt O15164); assay: BROMOscan DiscoveRx Binding Constant Assay (TRIM24); conditions: qPCR readout
T2 construct: purchased DiscoveRx (BROMOscan); host or cells: T7 phage in E. coli host derived from BL21
T2 sequence (O15164 899-1004 limits assumed): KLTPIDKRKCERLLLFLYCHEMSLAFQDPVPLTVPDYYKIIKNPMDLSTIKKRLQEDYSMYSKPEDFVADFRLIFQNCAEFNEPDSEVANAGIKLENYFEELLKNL
Text: (§1) Compounds that bind the bromodomain active site and directly (sterically) or indirectly (allosterically) prevent bromodomain binding to the immobilized ligand, will reduce the amount of protein captured on the solid support (Panels A & B). […] Screening “hits” are identified by measuring the amount of bromodomain captured in test versus control samples by using a quantitative, precise and ultra-sensitive qPCR method that detects the associated DNA label. In a similar manner, dissociation constants (Kd's) for test compound-bromodomain interactions are calculated by measuring the amount of bromodomain captured on the solid support as a function of the test compound concentration.
(§2) Bromodomain assays. T7 phage strains displaying bromodomains were grown in parallel in 24-well blocks in an E. coli host derived from the BL21 strain. E. coli were grown to log-phase and infected with T7 phage from a frozen stock (multiplicity of infection=0.4) and incubated with shaking at 32° C. until lysis (90-150 minutes). The lysates were centrifuged (5,000×g) and filtered (0.2 μm) to remove cell debris. Streptavidin-coated magnetic beads were treated with biotinylated small molecule or acetylated peptide ligands for 30 minutes at room temperature to generate affinity resins for bromodomain assays. The liganded beads were blocked with excess biotin and washed with blocking buffer (SeaBlock (Pierce), 1% BSA, 0.05% Tween 20, 1 mM DTT) to remove unbound ligand and to reduce non-specific phage binding. […] Test compounds were prepared as 1000× stocks in 100% DMSO and subsequently diluted 1:10 in monoethylene glycol (MEG) to create stocks at 100× the screening concentration (resulting stock solution is 10% DMSO/90% MEG). The compounds were then diluted directly into the assays such that the final concentration of DMSO and MEG were 0.1% and 0.9%, respectively. All reactions were performed in polystyrene 96-well plates in a final volume of 0.135 ml.
(§3) The beads were then re-suspended in elution buffer (lx PBS, 0.05% Tween 20, 2 μM nonbiotinylated affinity ligand) and incubated at room temperature with shaking for 30 minutes. The bromodomain concentration in the eluates was measured by qPCR.
(§4) An 11-point 3-fold serial dilution of each test compound was prepared in 100% DMSO at 1000× final test concentration. This serial is then diluted to 100× in ethylene glycol and subsequently diluted to 1× in the assay (final DMSO concentration=0.1%, Ethylene glycol concentration=0.9%). […] If the initial Kd determined was <0.169 nM (the lowest concentration tested), the measurement was repeated with a serial dilution starting at a lower top concentration.
(§5) Binding constants (Kd's) were calculated with a standard dose-response curve using the Hill equation: Response=Background+Signal−Background 1+(Kd Hill Slope/DoseHill Slope) The Hill Slope was set to −1. Curves were fitted using a non-linear least square fit with the Levenberg-Marquardt algorithm.

[3] = biological target: T3, BRPF1 (Homo sapiens, UniProt P55201); assay: BROMOscan DiscoveRx Binding Constant Assay (BRPF1); conditions: qPCR readout
T3 construct: purchased DiscoveRx (BROMOscan); host or cells: T7 phage in E. coli host derived from BL21
T3 sequence (P55201 628-732 limits assumed): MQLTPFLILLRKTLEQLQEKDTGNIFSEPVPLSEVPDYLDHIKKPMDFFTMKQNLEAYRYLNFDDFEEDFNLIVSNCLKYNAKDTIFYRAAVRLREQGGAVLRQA
Text: as §1, §2, §3, §4, §5

[4] = biological target: T4, BRPF2 (Homo sapiens, UniProt O95696); assay: BROMOscan DiscoveRx Binding Constant Assay (BRPF2); conditions: qPCR readout
T4 construct: purchased DiscoveRx (BROMOscan); host or cells: T7 phage in E. coli host derived from BL21
T4 sequence (O95696 562-666 limits assumed): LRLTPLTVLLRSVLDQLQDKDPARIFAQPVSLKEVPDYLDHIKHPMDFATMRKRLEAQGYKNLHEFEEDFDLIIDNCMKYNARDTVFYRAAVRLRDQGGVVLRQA
Text: as §1, §2, §3, §4, §5

[5] = biological target: T5, BRPF3 (Homo sapiens, UniProt Q9ULD4); assay: BROMOscan DiscoveRx Binding Constant Assay (BRPF3); conditions: qPCR readout
T5 construct: purchased DiscoveRx (BROMOscan); host or cells: T7 phage in E. coli host derived from BL21
T5 sequence (Q9ULD4 589-693 limits assumed): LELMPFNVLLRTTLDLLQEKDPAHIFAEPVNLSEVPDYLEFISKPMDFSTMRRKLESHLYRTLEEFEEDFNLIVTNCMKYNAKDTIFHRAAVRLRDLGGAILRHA
Text: as §1, §2, §3, §4, §5

Cn1c(=O)n(C)c2cc(Oc3cccc(OCC(F)(F)F)c3)c(NS(=O)(=O)c3cccnc3)cc21 [Example 125, N-(1,3-dimethyl-2-oxo-6-(3-(2,2,2-trifluoroethoxy)phenoxy)-2,3-dihydro-1H-benzo[d]imidazol-5-yl)pyridin-3-sulfonamide]
pIC50 [1]: 7.00 to 8.00 | pKd [2]: 8.00 to 9.00 | pKd [3]: 8.00 to 9.00 | pKd [4]: 8.00 to 9.00 | pKd [5]: 7.00 to 7.96
